Laboratory results published in patent US20100261719A1, “CHEMICAL COMPOUNDS” (priority 2007, published 2010).
Like-named read-outs stand apart in the source and are kept apart here.

Biological target: Escherichia coli DNA gyrase A/B tetramer (Escherichia coli, UniProt P0AES4+P0AES6)
Assay: DNA gyrase supercoiling activity fluorescence polarisation assay
Type: biochemical
Method: In a black, 384-well polystyrene assay plate, 30 microliters/well of 5 nM Escherichia coli DNA gyrase A/B tetramer and 130 micrograms/ml of topologically relaxed plasmid containing the triplex-forming sequence […] in an assay buffer consisting of 35 mM Tris-HCl (pH 7.5), 24 mM KCl, 4 mM MgCl2, 2 mM dithiothreitol, 1.8 mM spermidine, 5% (v/v) glycerol, 200 nM bovine serum albumin, 0.8% dimethylsulfoxide, and 0.3 mM ATP may be incubated at ambient temperature for (typically 30 minutes) in the absence or presence of 5-10 different concentrations of test compound. The supercoiling reactions may be quenched by the addition of 10 microliters/well of 40 nM oligodeoxynucleotide probe in 3× triplex-forming buffer consisting of 150 mM NaCl, and 150 mM sodium acetate at pH 3.5. The oligodeoxynucleotide probe may be 5′-BODIPY-FL-labeled TTCTTCTTC. After 60 minutes, the fluorescence anisotropy of the BODIPY-FL may be measured in a Tecan Ultra plate reader, using 485 nm excitation and 535 nm emission filters equipped with polarizers. The IC50 may be determined by nonliner regression using two control reactions. The first contains no test compound but 0.8% DMSO (100% activity) while the second control reaction contains 5 uM Ciprofloxacin and 0.8% DMSO (0% activity).
When tested in an in-vitro assay based on the DNA gyrase supercoiling activity fluorescence polarisation assay described above, the E. coli DNA gyrase supercoiling IC50 assay inhibitory activity of the following Examples was measured at the indicated IC50.

[1] = 5 nM enzyme, 0.3 mM ATP, relaxed plasmid, fluorescence anisotropy readout, read-out: E. coli DNA gyrase supercoiling IC50

Chain of Escherichia coli DNA gyrase A/B tetramer (P0AES4 whole entry, one chain of several): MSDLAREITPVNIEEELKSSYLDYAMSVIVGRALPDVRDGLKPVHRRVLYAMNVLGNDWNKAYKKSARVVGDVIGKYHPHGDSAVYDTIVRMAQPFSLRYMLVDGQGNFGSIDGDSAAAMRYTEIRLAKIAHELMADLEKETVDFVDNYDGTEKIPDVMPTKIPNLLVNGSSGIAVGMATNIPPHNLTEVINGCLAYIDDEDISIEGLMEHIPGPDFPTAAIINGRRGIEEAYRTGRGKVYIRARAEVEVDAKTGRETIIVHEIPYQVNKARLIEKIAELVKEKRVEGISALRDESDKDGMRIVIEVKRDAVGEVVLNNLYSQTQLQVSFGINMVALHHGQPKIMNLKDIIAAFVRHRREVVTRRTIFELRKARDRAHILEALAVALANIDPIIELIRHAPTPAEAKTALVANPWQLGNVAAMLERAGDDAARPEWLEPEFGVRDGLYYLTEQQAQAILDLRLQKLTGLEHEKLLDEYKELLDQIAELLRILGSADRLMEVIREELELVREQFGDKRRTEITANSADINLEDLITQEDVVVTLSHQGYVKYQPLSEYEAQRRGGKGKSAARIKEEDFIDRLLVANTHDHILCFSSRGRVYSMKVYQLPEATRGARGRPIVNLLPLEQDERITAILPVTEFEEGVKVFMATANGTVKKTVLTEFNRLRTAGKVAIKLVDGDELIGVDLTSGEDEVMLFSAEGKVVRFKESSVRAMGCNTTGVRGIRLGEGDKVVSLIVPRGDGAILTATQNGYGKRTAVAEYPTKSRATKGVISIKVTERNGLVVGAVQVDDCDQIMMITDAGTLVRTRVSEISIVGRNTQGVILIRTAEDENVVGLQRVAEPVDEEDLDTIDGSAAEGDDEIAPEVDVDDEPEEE

SMILES | IC50 [nM] | IC50 [1] [nM]
C[C@H]1CN2c3c(cc(C#Cc4cncs4)c(F)c3F)CC3(C(=O)NC(=O)NC3=O)[C@@H]2[C@@H](C)O1 (relative stereo) [Example 9, (2S,4R,4aR)-rel-9,10-Difluoro-2,4-dimethyl-8-(1,3-thiazol-5-ylethynyl)-1,2,4,4a-tetrahydro-2′H,6H-spiro[1,4-oxazino[4,3-a]quinoline-5,5′-pyrimidine]-2′,4′,6′(1′H,3′H)-trione] | 700 | 
C[C@@H]1CN2c3ccc(NC(=O)N(C)C)cc3CC3(C(=O)NC(=O)NC3=O)[C@H]2[C@H](C)O1 (relative stereo) [Example 77, 3-[(2R,4S,4aS)-rel-2,4-Dimethyl-2′,4′,6′-trioxo-1,1′,2,3′,4,4′,4a,6′-octahydro-2′H,6H-spiro[1,4-oxazino[4,3-a]quinoline-5,5′-pyrimidin]-8-yl]-1,1-dimethylurea] | 21700 | 
C[C@H]1CN2c3c(cc(C#Cc4cc5ccccc5s4)c(F)c3F)CC3(C(=O)NC(=O)NC3=O)[C@@H]2[C@@H](C)O1 (racemic) [Example 11, (2S,4R,4aR)-rel-8-(1-Benzothiophen-2-ylethynyl)-9,10-difluoro-2,4-dimethyl-1,2,4,4a-tetrahydro-2′H,6H-spiro[1,4-oxazino[4,3-a]quinoline-5,5′-pyrimidine]-2′,4′,6′(1′H,3′H)-trione] | 5490 | 
C[C@@H]1CN2c3ccc(C#Cc4ccccn4)cc3CC3(C(=O)NC(=O)NC3=O)C2[C@H](C)O1 (relative stereo) [Example 2, (2R,4S)-rel-2,4-Dimethyl-8-(pyridin-2-ylethynyl)-1,2,4,4a-tetrahydro-2′H,6H-spiro[1,4-oxazino[4,3-a]quinoline-5,5′-pyrimidine]-2′,4′,6′(1′H,3′H)-trione] | 2090 | 
C/C(=N\NC(N)=O)c1cc2c(c(F)c1F)N1C[C@@H](C)O[C@@H](C)[C@@H]1C1(C2)C(=O)NC(=O)NC1=O (relative stereo) [Example 54, (2E)-2-{1-[(2R,4S,4aS)-rel-9,10-Difluoro-2,4-dimethyl-2′,4′,6′-trioxo-1,1′,2,3′,4,4′,4a,6′-octahydro-2′H,6H-spiro[1,4-oxazino[4,3-a]quinoline-5,5′-pyrimidin]-8-yl]ethylidene}hydrazinecarboxamide] | 2300 | 
C[C@@H]1CN2c3ccc(NS(=O)(=O)N4CCOCC4)cc3CC3(C(=O)NC(=O)NC3=O)[C@H]2[C@H](C)O1 (relative stereo) [Example 75, N-[(2R,4S ,4aS)-rel-2,4-Dimethyl-2′,4′,6′-trioxo-1,1′,2,3′,4,4′,4a,6′-octahydro-2′H,6H-spiro[1,4-oxazino[4,3-a]quinoline-5,5′-pyrimidin]-8-yl]morpholine-4-sulfonamide] | 660 | 
C[C@@H]1CN2c3c(cc(C(=O)NC4CCCN(C)C4)c(F)c3F)CC3(C(=O)NC(=O)NC3=O)[C@H]2[C@H](C)O1 (relative stereo) [Example 69, (2R,4S,4aS)-rel-9,10-Difluoro-2,4-dimethyl-N-(1-methylpiperidin-3-yl)-2′,4′,6′-trioxo-1,1′,2,3′,4,4′,4a,6′-octahydro-2′H,6H-spiro[1,4-oxazino[4,3-a]quinoline-5,5′-pyrimidine]-8-carboxamide] | 8680 | 
C[C@H]1CN2c3c(cc(C#Cc4nncs4)c(F)c3F)CC3(C(=O)NC(=O)NC3=O)[C@@H]2[C@@H](C)O1 (relative stereo) [Example 7, (2S,4R,4aR)-rel-9,10-Difluoro-2,4-dimethyl-8-(1,3,4-thiadiazol-2-ylethynyl)-1,2,4,4a-tetrahydro-2′H,6H-spiro[1,4-oxazino[4,3-a]quinoline-5,5′-pyrimidine]-2′,4′,6′(1′H,3′H)-trione] | 410 | 
C[C@@H]1CN2c3cc(F)c(C#Cc4nncs4)cc3CC3(C(=O)NC(=O)NC3=O)[C@H]2[C@H](C)O1 (relative stereo) [Example 24, (2R,4S,4aS)-rel-9-Fluoro-2,4-dimethyl-8-(1,3,4-thiadiazol-2-ylethynyl)-1,2,4,4a-tetrahydro-2′H,6H-spiro[1,4-oxazino[4,3-a]quinoline-5,5′-pyrimidine]-2′,4′,6′(1′H,3′H)-trione] | 350 | 
C[C@@H]1CN2c3c(F)cc(C#Cc4nncs4)cc3CC3(C(=O)NC(=O)NC3=O)[C@H]2[C@H](C)O1 (relative stereo) [Example 36, (2R,4S,4aS)-rel-10-Fluoro-2,4-dimethyl-8-(1,3,4-thiadiazol-2-ylethynyl)-1,2,4,4a-tetrahydro-2′H,6H-spiro[1,4-oxazino[4,3-a]quinoline-5,5′-pyrimidine]-2′,4′,6′(1′H,3′H)-trione] | 710 | 
C[C@@H]1CN2c3c(F)cc(C#Cc4cccnc4)cc3CC3(C(=O)NC(=O)NC3=O)[C@H]2[C@H](C)O1 (relative stereo) [Example 44, (2R,4S,4aS)-rel-10-Fluoro-2,4-dimethyl-8-(pyridin-3-ylethynyl)-1,2,4,4a-tetrahydro-2′H,6H-spiro[1,4-oxazino[4,3-a]quinoline-5,5′-pyrimidine]-2′,4′,6′(1′H,3′H)-trione] | 220 | 
C[C@@H]1CN2c3ccc(C#Cc4nccn4C)cc3CC3(C(=O)NC(=O)NC3=O)[C@H]2[C@H](C)O1 (relative stereo) [Example 4, (2R,4S,4aS)-rel-2,4-Dimethyl-8-[(1-methyl-1H-imidazol-2-yl)ethynyl]-1,2,4,4a-tetrahydro-2′H,6H-spiro[1,4-oxazino[4,3-a]quinoline-5,5′-pyrimidine]-2′,4′,6′(1′H,3′H)-trione] | 630 | 
C/C(=N\Nc1ncccn1)c1cc2c(c(F)c1F)N1C[C@@H](C)O[C@@H](C)[C@@H]1C1(C2)C(=O)NC(=O)NC1=O (relative stereo) [Example 59, (2R,4S,4aS)-rel-9,10-Difluoro-2,4-dimethyl-8-{(1E)-1-[2-(pyrimidin-2-yl)hydrazinylidene]ethyl}-1,2,4,4a-tetrahydro-2′H,6H-spiro[1,4-oxazino[4,3-a]quinoline-5,5′-pyrimidine]-2′,4′,6′(1′H,3′H)-trione] | 1640 | 
C[C@@H]1CN2c3c(cc(C#Cc4ccc(-c5ccn[nH]5)s4)c(F)c3F)CC3(C(=O)NC(=O)NC3=O)[C@H]2[C@H](C)O1 (relative stereo) [Example 17, (2R,4S,4aS)-rel-9,10-Difluoro-2,4-dimethyl-8-{[5-(1H-pyrazol-5-yl)thiophen-2-yl]ethynyl}-1,2,4,4a-tetrahydro-2′H,6H-spiro[1,4-oxazino[4,3-a]quinoline-5,5′-pyrimidine]-2′,4′,6′(1′H,3′H)-trione] | 1840 | 
C[C@@H]1CN2c3c(cc(C#Cc4ccc(-c5nnn[nH]5)s4)c(F)c3F)CC3(C(=O)NC(=O)NC3=O)[C@H]2[C@H](C)O1 (relative stereo) [Example 14, (2R,4S,4aS)-rel-9,10-Difluoro-2,4-dimethyl-8-{[5-(1H-tetrazol-5-yl)thiophen-2-yl]ethynyl}-1,2,4,4a-tetrahydro-2′H,6H-spiro[1,4-oxazino[4,3-a]quinoline-5,5′-pyrimidine]-2′,4′,6′(1′H,3′H)-trione] | 1120 | 
C[C@@H]1CN2c3c(cc(C(=O)NC4CCN(C(=O)OC(C)(C)C)C4)c(F)c3F)CC3(C(=O)NC(=O)NC3=O)[C@H]2[C@H](C)O1 (relative stereo) [Example 63, tert-Butyl 3-({[2R,4S,4aS)-rel-9,10-difluoro-2,4-dimethyl-2′,4′,6′-trioxo-1,1′,2,3′,4,4′,4a,6′-octahydro-2′H,6H-spiro[1,4-oxazino[4,3-a]quinoline-5,5′-pyrimidin]-8-yl]carbonyl}amino)pyrrolidine-1-carboxylate] |  | 6400
C/C(=N\Nc1ccccc1)c1cc2c(c(F)c1F)N1C[C@@H](C)O[C@@H](C)[C@@H]1C1(C2)C(=O)NC(=O)NC1=O (relative stereo) [Example 58, (2R,4S,4aS)-rel-9,10-Difluoro-2,4-dimethyl-8-[(1E)-1-(2-phenylhydrazinylidene)ethyl]-1,2,4,4a-tetrahydro-2′H,6H-spiro[1,4-oxazino[4,3-a]quinoline-5,5′-pyrimidine]-2′,4′,6′(1′H,3′H)-trione] | 980 | 
C[C@H]1CN2c3c(cc(C#Cc4ncccn4)c(F)c3F)CC3(C(=O)NC(=O)NC3=O)[C@@H]2[C@@H](C)O1 (relative stereo) [Example 19, (2S,4R,4aR)-rel-9,10-Difluoro-2,4-dimethyl-8-(pyrimidin-2-ylethynyl)-1,2,4,4a-tetrahydro-2′H,6H-spiro[1,4-oxazino[4,3-a]quinoline-5,5′-pyrimidine]-2′,4′,6′(1′H,3′H)-trione] | 520 | 
C[C@@H]1CN2c3cc(F)c(C#Cc4nccn4C)cc3C(=O)C3(CNC(=O)NC3=O)[C@H]2[C@H](C)O1 (relative stereo) [Example 30, (2R,4S,4aS)-rel-9-Fluoro-2,4-dimethyl-8-[(1-methyl-1H-imidazol-2-yl)ethynyl]-1,2,4,4a-tetrahydro-2′H,6H-spiro[1,4-oxazino[4,3-a]quinoline-5,5′-pyrimidine]-2′,4′,6(1′H,3′H)-trione] |  | 1150
C[C@@H]1CN2c3cc(F)c(C#Cc4cccnc4)cc3CC3(C(=O)NC(=O)NC3=O)[C@H]2[C@H](C)O1 (relative stereo) [Example 32, (2R,4S,4aS)-rel-9-Fluoro-2,4-dimethyl-8-(pyridin-3-ylethynyl)-1,2,4,4a-tetrahydro-2′H,6H-spiro[1,4-oxazino[4,3-a]quinoline-5,5′-pyrimidine]-2′,4′,6′(1′H,3′H)-trione] | 2240 | 
